Like-named read-outs stand apart in the source and are kept apart here.
Tests used:
Type in all cases: cell-based
CDK2 = target: T1, CDK2 (Homo sapiens, UniProt P24941); experiment: HiBit Assay Protocol for CDK2 (HIBIT protein quantification, degradation); settings: HEK293-CDK2-Hibit cells, compound treatment for 6 hours; for DC50: ABS DC50
T1 construct: host or cells: HEK293-CDK2-Hibit
Outline: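 HEK293 cells expressing HiBiT-tagged CDK2 were seeded overnight, then treated 6 h with a 3-fold, 10-point compound dilution series. CDK2 levels were read as luminescence after lytic HiBiT/LgBiT detection, normalised to DMSO-only and medium-only controls, and DC50 derived by curve fitting.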

CCNE1 = target: T2, CCNE1 (Homo sapiens, UniProt P24864); experiment: HiBit Assay Protocol for CCNE1 (HIBIT protein quantification, degradation); settings: HEK293-CCNE1-Hibit cells, compound treatment for 6 hours
T2 construct: host or cells: HEK293-CCNE1-Hibit
Outline: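 HEK293 cells expressing HiBiT-tagged CCNE1 were seeded overnight, then treated 6 h with a 3-fold, 10-point compound dilution series. HiBiT levels were read by lytic LgBiT luminescence and normalised to DMSO-only (high) and medium-only (low) controls. DC50 was derived by curve fitting.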

CDK9 = target: T3, CDK9 (Homo sapiens, UniProt P50750); experiment: HiBit Assay Protocol for CDK9 (HIBIT protein quantification, degradation); settings: HEK293-CDK9-Hibit cells, compound treatment for 6 hours; for Dmax: read-out: CDK9 HIBIT Protein Quantification Maximum
T3 construct: host or cells: HEK293-CDK9-Hibit
Outline: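 HEK293 cells carrying HiBiT-tagged CDK9 treated 6 h with compounds in a 3-fold, 10-point dilution series. CDK9 level read by lytic Nano-Glo HiBiT/LgBiT luminescence and normalized to 0.1% DMSO (high) and medium-only (low) controls. DC50 from curve fitting.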

T3 sequence (P50750 whole entry): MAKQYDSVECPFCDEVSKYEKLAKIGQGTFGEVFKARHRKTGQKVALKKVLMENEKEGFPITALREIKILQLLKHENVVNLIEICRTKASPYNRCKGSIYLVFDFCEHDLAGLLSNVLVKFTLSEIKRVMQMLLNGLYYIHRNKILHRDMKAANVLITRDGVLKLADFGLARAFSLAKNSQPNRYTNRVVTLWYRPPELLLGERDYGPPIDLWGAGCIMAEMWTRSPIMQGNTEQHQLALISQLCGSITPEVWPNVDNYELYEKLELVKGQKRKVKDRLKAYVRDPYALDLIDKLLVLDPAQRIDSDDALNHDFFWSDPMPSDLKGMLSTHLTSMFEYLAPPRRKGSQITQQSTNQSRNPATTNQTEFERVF
T2 sequence (P24864 whole entry): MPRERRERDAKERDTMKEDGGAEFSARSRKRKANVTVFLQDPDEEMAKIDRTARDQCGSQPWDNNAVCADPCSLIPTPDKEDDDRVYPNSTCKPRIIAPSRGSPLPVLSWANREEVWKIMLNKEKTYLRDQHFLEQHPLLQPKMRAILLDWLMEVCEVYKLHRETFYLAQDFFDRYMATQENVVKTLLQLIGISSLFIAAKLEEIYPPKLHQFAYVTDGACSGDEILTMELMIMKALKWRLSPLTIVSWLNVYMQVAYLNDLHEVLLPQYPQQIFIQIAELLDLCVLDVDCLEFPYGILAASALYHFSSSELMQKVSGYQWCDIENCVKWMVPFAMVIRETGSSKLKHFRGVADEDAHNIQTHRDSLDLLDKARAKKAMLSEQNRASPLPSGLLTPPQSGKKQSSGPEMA

SMILES | CDK2 HIBIT Protein Quantification Maximum (CDK2) | CCNE1 HIBIT Protein Quantification Maximum (CCNE1) | Dmax (CDK9; 6 h) | DC50 (CDK9; ABS DC50) | DC50 (CDK2) | Dmax (CDK9)
Cc1ccc(CN2CCC(c3ccc4c(N5CCC(=O)NC5=O)nn(C)c4c3)CC2)cc1S(=O)(=O)N1CCC(Nc2ncc3c(n2)N([C@@H]2CCC[C@@H](O)C2)C(=O)C32CC2)CC1 [Compound 163, 1-[6-(1-{[3-(4-{7′-[(1R,3R)-3-Hydroxycyclohexyl]-6′-oxospiro [cyclopropane-1,5′-pyrrolo[2,3-d]pyrimidin]-2′-ylamino}piperidin-1-ylsulfonyl)-4-methylphenyl]methyl}piperidin-4-yl)-1-methylindazol-3-yl]-1,3-diazinane-2,4-dione] | 26% | 38% | 51% | 25.3 nM |  | 
Cn1nc(N2CCC(=O)NC2=O)c2ccc(C3CCN(Cc4ccnc(S(=O)(=O)N5CCC(Nc6ncc7c(n6)N([C@@H]6CCC[C@@H](O)C6)C(=O)C76CC6)CC5)c4)CC3)cc21 [Compound 165, 1-[6-(1-{[2-(4-{7′-[(1R,3R)-3-Hydroxycyclohexyl]-6′-oxospiro[cyclopropane-1,5′-pyrrolo[2,3-d]pyrimidin]-2′-ylamino}piperidin-1-ylsulfonyl)pyridin-4-yl]methyl}piperidin-4-yl)-1-methylindazol-3-yl]-1,3-diazinane-2,4-dione] | 78% | 44% | 13% |  | 10.1 nM | 
Cn1nc(N2CCC(=O)NC2=O)c2ccc(C3CCN(Cc4cccc(S(=O)(=O)N5CCC(Nc6ncc7c(n6)N([C@@H]6CCC[C@@H](O)C6)C(=O)C76CC6)CC5)n4)CC3)cc21 [Compound 166, 1-[6-(1-{[6-(4-{7′-[(1R,3R)-3-Hydroxycyclohexyl]-6′-oxospiro[cyclopropane-1,5′-pyrrolo[2,3-d]pyrimidin]-2′-ylamino}piperidin-1-ylsulfonyl)pyridin-2-yl]methyl}piperidin-4-yl)-1-methylindazol-3-yl]-1,3-diazinane-2,4-dione] | 64% | 44% | 18% |  | 21.3 nM | 
Cc1cc(CN2CCC(c3ccc4c(N5CCC(=O)NC5=O)nn(C)c4c3)CC2)cc(S(=O)(=O)N2CCC(Nc3ncc4c(n3)N([C@@H]3CCC[C@@H](O)C3)C(=O)C43CC3)CC2)c1 [Compound 167, 1-[6-(1-{[3-(4-{7′-[(1R,3R)-3-Hydroxycyclohexyl]-6′-oxospiro[cyclopropane-1,5′-pyrrolo[2,3-d]pyrimidin]-2′-ylamino}piperidin-1-ylsulfonyl)-5-methylphenyl]methyl}piperidin-4-yl)-1-methylindazol-3-yl]-1,3-diazinane-2,4-dione] | 70% | 32% | 15% |  | 3.77 nM | 
Cc1ccc(S(=O)(=O)N2CCC(Nc3ncc4c(n3)N([C@@H]3CCC[C@@H](O)C3)C(=O)C43CC3)CC2)cc1CN1CCC(c2ccc3c(N4CCC(=O)NC4=O)nn(C)c3c2)CC1 [Compound 168] | 71% | 40% | 26% |  | 2.91 nM | 
Cn1nc(N2CCC(=O)NC2=O)c2ccc(C3CCN(Cc4cc(S(=O)(=O)N5CCC(Nc6ncc7c(n6)N([C@@H]6CCC[C@@H](O)C6)C(=O)C76CC6)CC5)ccc4F)CC3)cc21 [Compound 169, 1-[6-(1-{[2-Fluoro-5-(4-{7′-[(1R,3R)-3-hydroxycyclohexyl]-6′-oxospiro[cyclopropane-1,5′-pyrrolo[2,3-d]pyrimidin]-2′-ylamino}piperidin-1-ylsulfonyl)phenyl]methyl}piperidin-4-yl)-1-methylindazol-3-yl]-1,3-diazinane-2,4-dione] | 84% | 47% | 10% |  | 5.85 nM | 
Cn1nc(N2CCC(=O)NC2=O)c2ccc(C3CCN(Cc4cc(F)cc(S(=O)(=O)N5CCC(Nc6ncc7c(n6)N([C@@H]6CCC[C@@H](O)C6)C(=O)C76CC6)CC5)c4)CC3)cc21 [Compound 170, 1-[6-(1-{[3-Fluoro-5-(4-{7′-[(1R,3R)-3-hydroxycyclohexyl]-6′-oxospiro[cyclopropane-1,5′-pyrrolo[2,3-d]pyrimidin]-2′-ylamino}piperidin-1-ylsulfonyl)phenyl]methyl}piperidin-4-yl)-1-methylindazol-3-yl]-1,3-diazinane-2,4-dione] | 75% | 46% |  |  | 3.63 nM | 5%
Cn1nc(N2CCC(=O)NC2=O)c2ccc(C3CCN(Cc4ccc(F)c(S(=O)(=O)N5CCC(Nc6ncc7c(n6)N([C@@H]6CCC[C@@H](O)C6)C(=O)C76CC6)CC5)c4)CC3)cc21 [Compound 171] | 55% | 29% | 15% |  | 4.43 nM | 
Cn1nc(N2CCC(=O)NC2=O)c2ccc(C3CCN(Cc4cccc(S(=O)(=O)N5CCC(Nc6ncc7c(n6)N([C@@H]6CCC[C@@H](O)C6)C(=O)C76CC6)CC5)c4F)CC3)cc21 [Compound 172] | 74% | 49% | 17% |  | 4.05 nM | 
Cn1nc(N2CCC(=O)NC2=O)c2ccc(C3CCN(Cc4cccc(S(=O)(=O)N5CCC(Nc6ncc7c(n6)N([C@@H]6CCC[C@@H](O)C6)C(=O)C76CC6)CC5)c4)CC3)c(F)c21 [Compound 175, 1-[7-fluoro-6-(1-{[3-(4-{7′-[(1R,3R)-3-Hydroxycyclohexyl]-6′-oxospiro[cyclopropane-1,5′-pyrrolo[2,3-d]pyrimidin]-2′-ylamino}piperidin-1-ylsulfonyl)phenyl]methyl}piperidin-4-yl)-1-methylindazol-3-yl]-1,3-diazinane-2,4-dione] | 78% | 44% | 8% |  | 4.19 nM | 
Cn1nc(N2CCC(=O)NC2=O)c2cc(F)c(C3CCN(Cc4cccc(S(=O)(=O)N5CCC(Nc6ncc7c(n6)N([C@@H]6CCC[C@@H](O)C6)C(=O)C76CC6)CC5)c4)CC3)cc21 [Compound 176, 1-[5-Fluoro-6-(1-{[3-(4-{7′-[(1R,3R)-3-hydroxycyclohexyl]-6′-oxospiro[cyclopropane-1,5′-pyrrolo[2,3-d]pyrimidin]-2′-ylamino}piperidin-1-ylsulfonyl)phenyl]methyl}piperidin-4-yl)-1-methylindazol-3-yl]-1,3-diazinane-2,4-dione] | 79% | 45% | 20% |  | 3.34 nM | 
Cn1nc(N2CCC(=O)NC2=O)c2ccc(C3CCN(Cc4cccc(S(=O)(=O)N5CCC(Nc6ncc7c(n6)N([C@@H]6CCC[C@@H](O)C6)C(=O)C76CC6)CC5)c4)CC3(F)F)cc21 (stereo partly drawn) [Compound 177, 1-[6-(3,3-difluoro-1-{[3-(4-{7′-[(1R,3R)-3-hydroxycyclohexyl]-6′-oxospiro[cyclopropane-1,5′-pyrrolo[2,3-d]pyrimidin]-2′-ylamino}piperidin-1-ylsulfonyl)phenyl]methyl}piperidin-4-yl)-1-methylindazol-3-yl]-1,3-diazinane-2,4-dione] | 81% | 41% | 14% |  | 6.51 nM | 
Cn1nc(N2CCC(=O)NC2=O)c2ccc(C3CCN(Cc4cccc(S(=O)(=O)N5CCC(Nc6ncc7c(n6)N([C@H]6CCC[C@]6(C)O)C(=O)C76CC6)CC5)c4)CC3)cc21 [Compound 178] | 75% | 38% | 23% |  | 1.8 nM | 
